# Test system: nanog
# Assay: RT-qPCR of nanog RNA in AGS cells
# Type: cell-based, human
# Conditions: 10 μM, 4 days, FIG. 3
# Procedure: Approximately 2.5×10^5 AGS cells were treated for 4 days with DMSO alone (no drug treatment) or 10 μM compound I-1 in DMSO. Cells were lysed and RNA was extracted using Zymo's Quick RNA-Microprep following manufacturer instructions. 100 ng of RNA were reverse transcribed using MuLV reverse transcriptase (New England Biolabs, USA). qPCR was performed using 2 ul of cDNA and Luna Universal qPCR Master Mix from NEB in a Stratagene Mx3005P.
# AGS gastric cancer cells were treated with either DMSO alone (no drug treatment) or 10 µM of compound I-1 for 4 days. RNA was isolated and nanog RNA levels were measured by RT-qPCR.
smiles,measurement,value
CCC(=O)N1CCc2cc(-c3ccc(C(=O)NCc4cccnc4)cc3)ccc21 [Compound I-1],nanog expression in gastric cancer cells,decreased
